Results as given in patent US10428026B2, “Pyridinone dicarboxamide for use as bromodomain inhibitors” (GlaxoSmithKline Intellectual Property (No.2) Limited, priority 2015, dated 2019).

target: T1, BRD4 BD2 (Homo sapiens, UniProt O60885, Y97A); assay: BRD4 BD2 TR-FRET competition assay; type: binding; settings: BRD4 BD2 TR-FRET; read-out: pIC50 in the BRD4 BD2 assay (converted)
T1 construct: BRD4 (1-477) (Y97A) and (Y390A); made in house; host or cells: E. coli (pET15b vector)

| Structure (SMILES) | IC50 [µM] |
| --- | --- |
| CNC(=O)c1cc(C(=O)NC2CCC2c2ccccc2)cn(Cc2ccccc2)c1=O (centres unmarked) [Example 168, 1-Benzyl-N3-methyl-2-oxo-N5-(2-phenylcyclobutyl)-1,2-dihydropyridine-3,5-dicarboxamide] | 1 to 100 |
| CNC(=O)c1cc(C(=O)NC2CC2)cn(C(C)c2cccc(C)c2)c1=O (single isomer, unassigned) [Example 211, (S*)-N5-Cyclopropyl-N3-methyl-2-oxo-1-(1-(m-tolyl)ethyl)-1,2-dihydropyridine-3,5-dicarboxamide] | 1 to 100 |
| CCO[C@H]1C[C@H]1NC(=O)c1cc(C(=O)NC)c(=O)n(Cc2cccc(F)c2)c1 (racemic) [Example 208, (+/−)-N5-((cis)-2-ethoxycyclopropyl)-1-(3-fluorobenzyl)-N3-methyl-2-oxo-1,2-dihydropyridine-3,5-dicarboxamide] | 1 to 100 |
| CNC(=O)c1cc(C(=O)NC2CC2)cn(CC2COc3ccccc32)c1=O (centres unmarked) [Example 268, N5-Cyclopropyl-1-((2,3-dihydrobenzofuran-3-yl)methyl)-N3-methyl-2-oxo-1,2-dihydropyridine-3,5-dicarboxamide] | 1 to 100 |
| CNC(=O)c1cc(C(=O)N[C@@H]2CCCC[C@@H]2O)cn(Cc2ccccc2)c1=O (racemic) [Example 186, (+/−)-1-Benzyl-N5-((cis)-2-hydroxycyclohexyl)-N3-methyl-2-oxo-1,2-dihydropyridine-3,5-dicarboxamide] | 1 to 100 |
| CNC(=O)c1cc(C(=O)NC2CC2)cn(CCCc2ccccc2)c1=O [Example 190, N5-Cyclopropyl-N3-methyl-2-oxo-1-(3-phenylpropyl)-1,2-dihydropyridine-3,5-dicarboxamide] | 1 to 100 |
| CNC(=O)c1cc(C(=O)N[C@H]2C[C@@H]2C)cn(Cc2cc(OC)ccn2)c1=O [Example 334, 1-((4-Methoxypyridin-2-yl)methyl)-N^3-methyl-N^5-((1S,2S)-2-methylcyclopropyl)-2-oxo-1,2-dihydropyridine-3,5-dicarboxamide] | 1 to 100 |
| CNC(=O)c1cc(C(=O)NC[C@@H]2CCC[C@H](O)C2)cn(Cc2ccccc2)c1=O (racemic) [Example 206, (+/−)-1-Benzyl-N5-(((1R,3S)-3-hydroxycyclohexyl)methyl)-N3-methyl-2-oxo-1,2-dihydropyridine-3,5-dicarboxamide] | 1 to 100 |
| CNC(=O)c1cc(C(=O)NC[C@@H]2CC[C@@H](O)C2)cn(Cc2ccccc2)c1=O (racemic) [Example 198, (+/−)-1-Benzyl-N5-(((trans)-3-hydroxycyclopentyl)methyl) N3-methyl-2-oxo-1,2-dihydropyridine-3,5-dicarboxamide] | 1 to 100 |
| CNC(=O)c1cc(C(=O)NC2CC2)cn(CC2CCCc3[nH]cnc32)c1=O (racemic) [Example 250, (+/−)-N5-Cyclopropyl-N3-methyl-2-oxo-1-((4,5,6,7-tetrahydro-1H-benzo[d]imidazol-4-yl)methyl)-1,2-dihydropyridine-3,5-dicarboxamide] | 1 to 100 |
| CNC(=O)c1cc(C(=O)NC2CC2(C)C)cn(Cc2ccccc2)c1=O (single isomer, unassigned) [Example 248, (R*)-1-Benzyl-N5-(2,2-dimethylcyclopropyl)-N3-methyl-2-oxo-1,2-dihydropyridine-3,5-dicarboxamide] | 1 to 100 |
| CNC(=O)c1cc(C(=O)NC2(CC(C)C)CC2)cn(Cc2ccccc2)c1=O [Example 173, 1-Benzyl-N5-(1-isobutylcyclopropyl)-N3-methyl-2-oxo-1,2-dihydropyridine-3,5-dicarboxamide] | 1 to 100 |
| CNC(=O)c1cc(C(=O)NC2CCC2)cn(Cc2ccc(C(=O)OC)cc2)c1=O [Example 180, Methyl 4-((5-(cyclobutylcarbamoyl)-3-(methylcarbamoyl)-2-oxopyridin-1(2H)-yl)methyl)benzoate] | 1 to 100 |
| CNC(=O)c1cc(C(=O)NCC2CCCCC2O)cn(Cc2ccccc2)c1=O (centres unmarked) [Example 194, 1-Benzyl-N5-((2-hydroxycyclohexyl)methyl)-N3-methyl-2-oxo-1,2-dihydropyridine-3,5-dicarboxamide] | 1 to 100 |
